Assay results: patent publication US20070249545A1, “DIHYDROFOLATE REDUCTASE INHIBITION BY EPIGALLOCATECHIN GALLATE COMPOUNDS” (priority 2004, published 2007)
Read-outs that look alike come from different tables or passages of the source.

How the values were obtained:
urokinase = urokinase (Homo sapiens, UniProt P00749); settings: in vitro; cited from earlier work
S. maltophilia DHFR = S. maltophilia DHFR (Stenotrophomonas maltophilia, UniProt B2FPG1); type: biochemical; settings: S. maltophilia DHFR
S. maltophilia DHFR, sequence (B2FPG1 entry or part of it): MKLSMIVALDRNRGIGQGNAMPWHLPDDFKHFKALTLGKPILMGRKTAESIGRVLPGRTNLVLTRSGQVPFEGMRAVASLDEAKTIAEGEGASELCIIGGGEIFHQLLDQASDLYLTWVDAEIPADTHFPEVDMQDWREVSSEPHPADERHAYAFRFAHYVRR
Protocol: For the DHFR extraction, S. maltophilia strain number 1, was inoculated onto fresh agar 24 h before using. Then, liquid medium was inoculated with the strain and these broth cultures were incubated at 37° C. and shaken at 100 cycles per min. Solid medium was MacConkey agar (Oxoid Ltd., Basingstoke, England). Liquid medium was Brilliant Green Bile 2% broth (Oxoid). Bacteria were grown to mid-log phase, harvested by centrifugation (1,600 rpm 30 min) and washed twice in 50 mM phosphate buffer (pH 7.0) followed each time by a new centrifugation (1,600 rpm 5 min). Cell lysis, centrifugation, and dialysis were carried out between 4 and 8° C. Fast protein liquid chromatography (FPLC) purification steps were performed at room temperature. […] After centrifugation at 36,000 rpm for 30 min to remove cell debris, the supernatant was filtered. This supernatant was brought to 40% saturation with solid ammonium sulfate under continuous stirring. After 1 h the solution was centrifuged at 35,000 rpm for 30 min and the pellet discarded. Additional ammonium sulfate was added to the clear supernatant to give 90% saturation and stirred for 1 h. After centrifugation, the precipitates were suspended in 2 ml of buffer B (10 mM potassium phosphate buffer, pH 7.4, 2 mM β-mercaptoethanol). Concentrated enzyme (2 ml samples) was loaded onto a […] gel-filtration column (Sephacryl S-75 16/60 Hi-Prep, Amersham Pharmacia Biotech Europe GmbH, Barcelona, Spain), equilibrated with buffer B and eluted at 0.5 ml/min. The active fractions were concentrated and stored at −80° C. until used.
Initial velocity inhibition experiments were carried out for the inhibition studies of S. maltophilia with TMP and EGCG. One substrate (NADPH) was held constant at saturating concentration while the other substrate (DHF) and the inhibitor (TMP or EGCG) were varied. To prevent the oxidation of EGCG the reaction mixture contained 1 mM N-acetylcysteine (Sigma). For MTX inhibition the slow development of […] inhibition was determined by continuously monitoring the disappearance of NADPH and DHF after initiation of the reaction by the addition of DHFR. Reaction mixtures contained buffer, NADPH (100 μM), DHF (20 μM), and various concentrations of MTX. The extent of recovery of enzymatic activity following inhibition induced by preincubation with DHFR inhibitors was determined as follows. DHFR was preincubated for 30 min at 25° C. in the buffer mixture containing MTX, TMP or EGCG. An aliquot of the incubation mixture was then diluted 500-fold into a reaction mixture containing buffer mixture, NADPH (100 μM), and DHF (20 μM). Recovery of enzyme activity was followed by continuous monitoring at 340 nm.
Provided that the concentration of free inhibitor is not substantially altered by the formation of an enzyme-NADPH-inhibitor complex, the progress curve for the inhibition in the presence of saturating NADPH can be described by Eqn. 1 (as above): P=vst+(v0−vs)(1−exp(−kobst))/kobs • where vs, v0 and kobs represent the steady-state velocity, initial velocity and apparent first-order rate constant, respectively. The apparent first-order rate constant is related to the inhibitor concentration by Eqn. 2, where Ki denotes the dissociation constants for the initial binding of MTX to the enzyme-NADPH complex. [formula]

S. maltophilia = test: Broth dilution MIC determination; type: cell-based, Stenotrophomonas maltophilia
Protocol: Eighteen strains of cotrimoxazole susceptible S. maltophilia were collected during the last year at the Hospital Universitario Virgen de la Arrixaca (Murcia, Spain) from clinical isolates. Bacteria were frozen at −70° C. in glycerol-meat medium and inoculated onto Columbia agar (Fluka Chemie GmbH, Madrid, Spain) supplemented with 5% of defibrinated sheep blood 48 and 24 h prior to susceptibility testing.
MICs for the 18 strains were determined by the broth dilution method at a final inoculum of 5×10^5 CFU/ml, according to the guidelines recommended by the NCCLS by using cation-adjusted Mueller-Hinton broth (Fluka). After incubation at 37° C. for 24 h, the lowest concentration of the two-fold serially diluted EGCG at which no visible growth occurred was defined as its MIC.

bovine liver DHFR = target: T1, bovine liver DHFR (Bos taurus, UniProt P00376); test: Kinetic analysis of inhibition of bovine liver DHFR; type: biochemical
T1 construct: from tissue; host or cells: bovine liver
T1 sequence (P00376 1-187): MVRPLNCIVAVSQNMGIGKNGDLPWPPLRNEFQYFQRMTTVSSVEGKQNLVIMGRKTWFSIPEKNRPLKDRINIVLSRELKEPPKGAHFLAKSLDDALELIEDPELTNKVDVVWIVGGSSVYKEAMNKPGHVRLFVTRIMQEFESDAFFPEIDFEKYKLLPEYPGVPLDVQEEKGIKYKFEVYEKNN
Protocol: The activity of DHFR was determined at 25° C. by following the decrease of NADPH and DHF by absorbance measurements at 340 nm (ε=11,800 M^−1 cm^−1) by using a Perkin-Elmer Lambda-2 spectrophotometer with cuvettes of 1.0 cm light-path.
Experiments were performed at pH 7.58 and 25° C. in a buffer containing 2-(N-morpholino)ethanesulfonic acid (MES, 25 mM), sodium acetate (25 mM), tris(hydroxymethyl)aminomethane (Tris 50 mM), and NaCl (100 mM). To prevent the oxidation of catechins, the reaction mixture contained 1 mM ascorbic acid. The pH of the reaction was measured before and after of the experiment. The assays were started by the addition of enzyme. In the absence of the enzyme, the rate of change of absorbance was negligible. […]
Progress curves for the slow, tight-binding inhibition of bovine liver DHFR by EGCG were determined by continuously monitoring the disappearance of NADPH and DHF after initiation of the reaction by the addition of 3.3 nM enzyme. Reaction mixtures contained buffer, NADPH (100 μM), DHF (20 μM) and EGCG. Assuming that the concentration of free inhibitor is not substantially altered by the formation of an enzyme-NADPH-inhibitor complex, the progress curve for the inhibition in the presence of saturating NADPH is described by Eqn. (1): P=vst+(v0−vs)(1−exp(−k′t))/k′
where vs, v0 and k′ represent the steady-state velocity, initial velocity and apparent first-order rate constant, respectively.
The values of k′ at different EGCG concentrations were obtained by non-linear regression analysis of the progress curves. KI and KI* denote the respective dissociation constants for the initial and equilibrium binding of inhibitors to the enzyme-NADPH complex (FIG. 5).

[1] = eighteen S. maltophilia isolates

Question: With (−)-epigallocatechin gallate [EGCG] as the substance, how does the “concentration needed to inhibit urokinase activity” value (urokinase) read?
Answer: 2 to 10 mM

Question: What about the “Type of inhibition observed” value (S. maltophilia DHFR) of the same substance?
Answer: competitive (reversible)

Question: What about the Ki (S. maltophilia DHFR; competitive respect to DHF, read-out: inhibition constant (Ki)) of the same substance?
Answer: 4040 nM

Question: What about the “effect of preincubation of the enzyme with inhibitor” value (S. maltophilia DHFR; preincubation 30 min, 500-fold dilution) of the same substance?
Answer: did not showed any effect on enzymatic activity

Question: And the MIC (S. maltophilia; S. maltophilia strain 1)?
Answer: 64 µg/mL

Question: And the MIC50 (S. maltophilia; [1])?
Answer: 32 µg/mL

Question: And the MIC90 (S. maltophilia; [1])?
Answer: 64 µg/mL

Question: And the “MICs (range)” value (S. maltophilia; [1])?
Answer: 4 to 256 µg/mL

Question: What about the k5 (bovine liver DHFR) of the same substance?
Answer: 0.13 min⁻¹

Question: And the k5/k6 (bovine liver DHFR)?
Answer: 32.5 ratio

Question: What about the k6 (bovine liver DHFR) of the same substance?
Answer: 0.004 min⁻¹

Question: What about the type of inhibition (bovine liver DHFR) of the same substance?
Answer: slow tight-binding inhibitor

Question: And the Ki (bovine liver DHFR; equilibrium binding to enzyme-NADPH complex, read-out: KI*)?
Answer: 2.9 nM

Question: And the Ki (bovine liver DHFR; initial binding to enzyme-NADPH complex, pH 7.58, 25° C., read-out: KI)?
Answer: 109 nM
